Values of other authors, collected in PMC7832358, “Trending Topics on Coumarin and Its Derivatives in 2020” (Molecules, 2021).

Tests used:
[1] = test system: streptozotocin (STZ)-induced cognitive dysfunction in rats
[2] = test system: streptozotocin (STZ)-induced cognitive dysfunction in rats; remark: listed apart in the source
xanthine oxidase = target: xanthine oxidase; design: method as in PMID 32574739; details: read-out: xanthine oxidase inhibition IC50
B16F10 cells = test system: B16F10 cells; design: method as in PMID 32574739
[3] = design: method as in PMID 31887477; details: inhibitor of thioredoxin reductases (TrxRs); read-out: antitumor activity IC50
Marburg virus (MARV) = details: read-out: IC50 against MARV
Ebolavirus (EBOV) = details: read-out: IC50 against EBOV
tyrosinase = test system: tyrosinase; design: method as in PMID 32652434
hMAO-B = details: read-out: hMAO-B inhibition IC50
reserpinized mice = reserpinized mice pre-treated with levodopa and benserazide
hA3 receptors = test system: hA3 receptors; design: method as in PMID 31738058; details: antagonists

O=c1ccc2ccc(O)cc2o1 [umbelliferone]
activity of hippocampal AChE [1]: reduced
expression of NF-κB inhibitor (IκB-α) [1]: upregulating
glutathione content [1]: increasing
level of malondialdehyde [1]: reduced
level of proinflammatory cytokines [1]: reducing
overexpression of inflammatory markers (nuclear factor κB and cyclooxygenase II) [1]: inhibiting
cognitive deficits in the Morris water maze and object recognition tests [2]: prevent cognitive deficits

COc1ccc(-c2cc3cc([N+](=O)[O-])ccc3oc2=O)cc1 [3-(4-methoxyphenyl)-6-nitrocoumarin]
IC50 (xanthine oxidase): 8400 nM
cytotoxicity in B16F10 cells (B16F10 cells): non-cytotoxic

CCN(CC)c1ccc2cc(/C=C/C(=O)c3ccc(OC)c(O)c3)c(=O)oc2c1 [compound V]
IC50 [3]: 3600 nM

COc1c2occc2cc2ccc(=O)oc12 [xanthotoxin]
activity of hippocampal AChE [1]: reduced
expression of NF-κB inhibitor (IκB-α) [1]: upregulating
glutathione content [1]: increasing
level of malondialdehyde [1]: reduced
level of proinflammatory cytokines [1]: reducing
cognitive deficits in the Morris water maze and object recognition tests [2]: prevent cognitive deficits

Cc1c(Cc2ccc(OC(F)(F)F)cc2)c(=O)oc2cc(OCC(O)CN3CCC(C(N)=O)CC3)ccc12 (stereo not shown) [compound XVI]
IC50 (Marburg virus (MARV)): 1200 nM
IC50 (Ebolavirus (EBOV)): 500 nM

O=c1cc(OCc2cn(Cc3cocc(O)c3=O)nn2)c2ccccc2o1 [compound XXVI]
tyrosinase inhibitory activity (tyrosinase): sub-micromolar range

O=c1oc2cc(O)ccc2cc1-c1cc(Br)cs1 [3-(4′-bromothiophen-2′-yl)-7-hydroxycoumarin]
IC50 (hMAO-B): 140 nM
in vivo profile on locomotor activity (OFT) versus selegiline (reserpinized mice): slightly better in vivo profile than selegiline

O=c1oc2c(O)cccc2cc1-c1ccc(Br)cc1 [compound XX]
hA3 receptor affinity (hA3 receptors): low nanomolar range
